In ChEMBL document CHEMBL2069170, “Geranylphenazinediol, an acetylcholinesterase inhibitor produced by a Streptomyces species” (J Nat Prod, 2012):
pIC50: −log10 of the molar value. Activity calls are given as the source filed them. The calls are words filed in the database; no cut-off is given here.

Columns and labels:
Bacillus subtilis = assay: Antimicrobial activity against Bacillus subtilis DSM 347 incubated for 5 hrs by resazurin dye based assay; assay type: functional, organism-based; details: DSM 347, 5 h
[1] = Toxicity against human KIF5 cells incubated for 24 hrs by CellTiter Blue cell viability assay; assay type: cell-based
Acetylcholinesterase = Acetylcholinesterase (Homo sapiens, UniProt P22303); assay: Inhibition of human AChE pre-incubated for 10 mins before acetylthiocholine iodide substrate addition
Chain of Acetylcholinesterase (P22303 whole entry): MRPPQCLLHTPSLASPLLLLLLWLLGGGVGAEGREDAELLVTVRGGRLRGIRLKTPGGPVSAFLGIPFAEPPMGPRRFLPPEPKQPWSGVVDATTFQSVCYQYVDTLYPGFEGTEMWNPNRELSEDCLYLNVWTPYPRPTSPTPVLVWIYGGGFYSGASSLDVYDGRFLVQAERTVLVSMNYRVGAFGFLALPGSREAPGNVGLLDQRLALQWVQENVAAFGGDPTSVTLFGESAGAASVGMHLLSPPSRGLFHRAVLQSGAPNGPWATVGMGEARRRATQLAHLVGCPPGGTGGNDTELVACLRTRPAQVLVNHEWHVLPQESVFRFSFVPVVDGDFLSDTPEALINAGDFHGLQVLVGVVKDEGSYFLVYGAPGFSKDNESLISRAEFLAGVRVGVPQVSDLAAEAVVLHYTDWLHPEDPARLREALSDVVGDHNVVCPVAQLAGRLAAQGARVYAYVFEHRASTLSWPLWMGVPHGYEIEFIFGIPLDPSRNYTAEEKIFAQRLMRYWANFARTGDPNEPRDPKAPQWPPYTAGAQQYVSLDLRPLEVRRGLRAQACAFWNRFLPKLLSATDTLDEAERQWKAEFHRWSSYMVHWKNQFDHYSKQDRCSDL

Candida albicans = assay: Antimicrobial activity against Candida albicans DSM 1386 incubated for 5 hrs by resazurin dye based assay; assay type: functional, organism-based
Xanthomonas campestris = assay: Antimicrobial activity against Xanthomonas campestris DSM 2405 incubated for 6 hrs by resazurin dye based assay; assay type: functional, organism-based

Structure (SMILES)	pIC50 (Bacillus subtilis)	IC50 at 24 h [1]	pIC50 (Acetylcholinesterase)	Activity (Candida albicans)	Activity (Xanthomonas campestris)
O=C(N[C@H](CO)[C@H](O)c1ccc([N+](=O)[O-])cc1)C(Cl)Cl [CHLORAMPHENICOL]	5.84	–	–	–	–
O=C(O)c1cccc2nc3ccccc3nc12 [PHENAZINE-1-CARBOXYLIC ACID]	< 3.82	> 50 µM	< 4.30	–	–
CC(C)=CCc1cc(=O)cc2n(C)c3cccc(C(=O)O)c3nc1-2 [ENDOPHENAZINE B]	< 3.82	> 50 µM	< 4.30	–	–
CC/C(=C(\c1ccccc1)c1ccc(OCCN(C)C)cc1)c1ccccc1 [TAMOXIFEN]	–	23.8 µM	–	–	–
CC(C)=CCC/C(C)=C/Cc1ccc(O)c2nc3cccc(O)c3nc12 [GERANYLPHENAZINEDIOL]	4.62	> 50 µM	5.58	inactive	inactive
Oc1cccc2nc3c(O)cccc3nc12	4.66	> 50 µM	5.34	–	–
CC(=O)Oc1cccc2nc3c(OC(C)=O)ccc(C/C=C(\C)CCC=C(C)C)c3nc12 [DIACETYLGERANYLPHENAZINEDIOL]	4.89	> 50 µM	5.70	inactive	inactive
CC(C)=CCc1cccc2nc3cccc(C(=O)O)c3nc12 [ENDOPHENAZINE A]	3.95	> 10 µM	< 4.30	–	–
Oc1ccc2nc3ccccc3nc2c1	4.12	> 50 µM	< 4.30	–	–
